Experimental data published in PMC9116245, “New 1,2,3-triazole linked ciprofloxacin-chalcones induce DNA damage by inhibiting human topoisomerase I& II and tubulin polymerization” (Journal of Enzyme Inhibition and Medicinal Chemistry, 2022).

What was measured:
[1] = test system: 786-0; test: NCI one-dose screen; assay type: cell-based; conditions: Homo sapiens; 786-0, 10 µM; read-out: Growth Percent
Procedure: (§1) For screening of anticancer properties, all the developed compounds were chosen by the (NCI) for in-vitro antitumor evaluation. The assay was carried out using 59 human cancer cell lines obtained from nine tumour subpanels (breast, ovarian, melanoma, leukaemia, renal, CNS, lung, prostate, and colon cancer cell lines). Compounds were assessed at a 10 µM concentration. […] Also, hybrids 4a, 4b, 4e, 4i and 4j produced significant anti-proliferative effect in several cancer cells, particularly in leukaemia (RPMI-8226) and colon (HCT116) cells with growth percent of 47.87, −14.59, −24.56, −24.42, −15.84, −9.74, −53.36, −10.26, −31.29, and −39.51%, respectively.
(§2) The method description for NCI anticancer screening is provided in detail in the standard NCI-60 testing protocol.

[2] = test system: A549/ATCC; test: NCI one-dose screen; assay type: cell-based; conditions: Homo sapiens, read-out: Growth Percent
Procedure: as §1, §2

[3] = test system: BT-549; test: NCI one-dose screen; assay type: cell-based; conditions: Homo sapiens; BT-549, 10 µM; read-out: Growth Percent
Procedure: as §1, §2

[4] = test system: CAKI-1; test: NCI one-dose screen; assay type: cell-based; conditions: Homo sapiens; CAKI-1, 10 µM; read-out: Growth Percent
Procedure: as §1, §2

[5] = test system: COLO 205; test: NCI one-dose screen; assay type: cell-based; conditions: Homo sapiens; COLO 205, 10 µM; read-out: Growth Percent
Procedure: as §1, §2

[6] = test system: DU-145; test: NCI one-dose screen; assay type: cell-based; conditions: Homo sapiens; DU-145, 10 µM; read-out: Growth Percent
Procedure: as §1, §2

[7] = test system: HCT-15; test: NCI one-dose screen; assay type: cell-based; conditions: Homo sapiens; HCT-15, 10 µM; read-out: Growth Percent
Procedure: as §1, §2

[8] = test system: K-562; test: NCI one-dose screen; assay type: cell-based; conditions: Homo sapiens, K562; K-562, 10 µM; read-out: Growth Percent
Procedure: as §1, §2

[9] = test system: LOX IMVI; test: NCI one-dose screen; assay type: cell-based; conditions: Homo sapiens, read-out: Growth Percent
Procedure: as §1, §2

[10] = test system: MALME-3M; test: NCI one-dose screen; assay type: cell-based; conditions: Homo sapiens, read-out: Growth Percent
Procedure: as §1, §2

[11] = test system: MCF7; test: NCI one-dose screen; assay type: cell-based; conditions: Homo sapiens; MCF7, 10 µM; read-out: Growth Percent
Procedure: as §1, §2

[12] = test system: MDA-MB-468; test: NCI one-dose screen; assay type: cell-based; conditions: Homo sapiens; MDA-MB-468, 10 µM; read-out: Growth Percent
Procedure: as §1, §2

[13] = test system: MOLT-4; test: NCI one-dose screen; assay type: cell-based; conditions: Homo sapiens; MOLT-4, 10 µM; read-out: Growth Percent
Procedure: as §1, §2

[14] = test system: NCI-H226; test: NCI one-dose screen; assay type: cell-based; conditions: Homo sapiens; NCI-H226, 10 µM; read-out: Growth Percent
Procedure: as §1, §2

[15] = test system: NCI-H23; test: NCI one-dose screen; assay type: cell-based; conditions: Homo sapiens; NCI-H23, 10 µM; read-out: Growth Percent
Procedure: as §1, §2

[16] = test system: NCI/ADR-RES; test: NCI one-dose screen; assay type: cell-based; conditions: Homo sapiens, read-out: Growth Percent
Procedure: as §1, §2

[17] = test system: OVCAR-3; test: NCI one-dose screen; assay type: cell-based; conditions: Homo sapiens; OVCAR-3, 10 µM; read-out: Growth Percent
Procedure: as §1, §2

[18] = test system: RXF 393; test: NCI one-dose screen; assay type: cell-based; conditions: Homo sapiens; RXF 393, 10 µM; read-out: Growth Percent
Procedure: as §1, §2

[19] = test system: SF-268; test: NCI one-dose screen; assay type: cell-based; conditions: Homo sapiens; SF-268, 10 µM; read-out: Growth Percent
Procedure: as §1, §2

[20] = test system: SF-295; test: NCI one-dose screen; assay type: cell-based; conditions: Homo sapiens; SF-295, 10 µM; read-out: Growth Percent
Procedure: as §1, §2

[21] = test system: SK-MEL-28; test: NCI one-dose screen; assay type: cell-based; conditions: Homo sapiens; SK-MEL-28, 10 µM; read-out: Growth Percent
Procedure: as §1, §2

[22] = test system: SK-OV-3; test: NCI one-dose screen; assay type: cell-based; conditions: Homo sapiens; SK-OV-3, 10 µM; read-out: Growth Percent
Procedure: as §1, §2

[23] = test system: SNB-19; test: NCI one-dose screen; assay type: cell-based; conditions: Homo sapiens; SNB-19, 10 µM; read-out: Growth Percent
Procedure: as §1, §2

[24] = test system: SNB-75; test: NCI one-dose screen; assay type: cell-based; conditions: Homo sapiens; SNB-75, 10 µM; read-out: Growth Percent
Procedure: as §1, §2

[25] = test system: SR; test: NCI one-dose screen; assay type: cell-based; conditions: Homo sapiens, read-out: Growth Percent
Procedure: as §1, §2

[26] = test system: T-47D; test: NCI one-dose screen; assay type: cell-based; conditions: Homo sapiens, T47D, read-out: Growth Percent
Procedure: as §1, §2

[27] = test system: TK-10; test: NCI one-dose screen; assay type: cell-based; conditions: Homo sapiens; TK-10, 10 µM; read-out: Growth Percent
Procedure: as §1, §2

[28] = test system: U251; test: NCI one-dose screen; assay type: cell-based; conditions: Homo sapiens, U-251; U251, 10 µM; read-out: Growth Percent
Procedure: as §1, §2

[29] = test system: UACC-257; test: NCI one-dose screen; assay type: cell-based; conditions: Homo sapiens; UACC-257, 10 µM; read-out: Growth Percent
Procedure: as §1, §2

[30] = test system: HCT-116; test: NCI one-dose screen; assay type: cell-based, human; conditions: HCT-116, 10 µM; for activity at 10 µM: Homo sapiens, read-out: Growth Percent
Procedure: as §1, §2

[31] = test system: RPMI-8226; test: NCI one-dose screen; assay type: cell-based, human; conditions: RPMI-8226, 10 µM; for activity at 10 µM: Homo sapiens, read-out: Growth Percent
Procedure: as §1, §2

[32] = test system: 59 human cancer cell lines; test: NCI one-dose screen, whole panel; assay type: cell-based; conditions: Homo sapiens, mean over the panel, read-out: Mean Growth Percent
Procedure: as §1, §2

[33] = test system: Caco-2; test: MTT assay; assay type: cell-based; conditions: Homo sapiens; Caco-2, MTT assay, 24 h incubation
Method in brief: (§3)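 Colorectal lines treated with 1, 5, 10, 20, 40, 80 or 100 µM compound, or DMSO vehicle. Proliferation read by MTT reduction.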

[34] = test system: HCT116; test: MTT assay; assay type: cell-based; conditions: Homo sapiens, HCT-116, 24 h incubation
Method in brief: as §3

[35] = test system: HT-29; test: MTT assay; assay type: cell-based; conditions: Homo sapiens; HT-29, MTT assay, 24 h incubation
Method in brief: as §3

| SMILES | activity at 10 µM [1] | activity at 10 µM [2] | activity at 10 µM [3] | activity at 10 µM [4] | activity at 10 µM [5] | activity at 10 µM [6] | activity at 10 µM [7] | activity at 10 µM [8] | activity at 10 µM [9] | activity at 10 µM [10] | activity at 10 µM [11] | activity at 10 µM [12] | activity at 10 µM [13] | activity at 10 µM [14] | activity at 10 µM [15] | activity at 10 µM [16] | activity at 10 µM [17] | activity at 10 µM [18] | activity at 10 µM [19] | activity at 10 µM [20] | other results |
| --- | --- | --- | --- | --- | --- | --- | --- | --- | --- | --- | --- | --- | --- | --- | --- | --- | --- | --- | --- | --- | --- |
| COc1ccc(/C=C/C(=O)c2ccc(-n3cc(CN4CCN(c5cc6c(cc5F)c(=O)c(C(=O)O)cn6C5CC5)CC4)nn3)cc2)cc1 [Compound 4g, (E)-1-Cyclopropyl-6-fluoro-7-(4-((1-(4-(3-(4-methoxyphenyl)acryloyl)phenyl)-1H-1,2,3-triazol-4-yl)methyl)piperazin-1-yl)-4-oxo-1,4-dihydroquinoline-3-carboxylic acid] | 78.1% | 89% | 90% | 75.5% | 97.1% | 90.8% | 95.8% | 67.5% | 56.9% | 84.8% | 51.2% | 74.4% | 81.7% | 76.3% | 85.4% | 94.8% | 90.5% | 75% | 77.3% | 90.7% | activity at 10 µM [21]: 85.3%; activity at 10 µM [22]: 84.6%; activity at 10 µM [23]: 84.1%; activity at 10 µM [24]: 91.6%; activity at 10 µM [25]: 13.1%; activity at 10 µM [26]: 93.4%; activity at 10 µM [27]: 92.4%; activity at 10 µM [28]: 68.6%; activity at 10 µM [29]: 91.7%; activity at 10 µM [30]: 2.68%; activity at 10 µM [31]: 11.5%; activity at 10 µM [32]: 78.8%; IC50 [33]: 11.4 ± 3.19 µM; IC50 [34]: 6.11 ± 1.03 µM; IC50 [35]: 34 ± 3.69 µM |
| COc1ccc(/C=C/C(=O)c2ccc(-n3cc(CN4CCN(c5cc6c(cc5F)c(=O)c(C(=O)O)cn6C5CC5)CC4)nn3)cc2)cc1OC [Compound 4i, (E)-1-cyclopropyl-7-(4-((1-(4-(3–(3,4-dimethoxyphenyl)acryloyl)phenyl)-1H-1,2,3-triazol-4-yl)methyl)piperazin-1-yl)-6-fluoro-4-oxo-1,4-dihydroquinoline-3-carboxylic acid] | 71.9% | 66.1% | 65.8% | 67.8% | 98.2% | 83.2% | 80.6% | 42.5% | 27.9% | 66.2% | 13.2% | 26.3% | 64.2% | 67.3% | 78.7% | 90.7% | 39.3% | 64.2% | 56% | 94.9% | activity at 10 µM [21]: 79.8%; activity at 10 µM [22]: 76.9%; activity at 10 µM [23]: 67.7%; activity at 10 µM [24]: 58.3%; activity at 10 µM [25]: -2.25%; activity at 10 µM [26]: 78.6%; activity at 10 µM [27]: 104%; activity at 10 µM [28]: 41.4%; activity at 10 µM [29]: 78.7%; Growth Percent [30]: -31.29%; activity at 10 µM [30]: -31.3%; activity at 10 µM [31]: -24.4%; Growth Percent [31]: -24.42%; activity at 10 µM [32]: 59.5%; IC50 [33]: 11.3 ± 2.39 µM; IC50 [34]: 4.87 ± 0.78 µM; IC50 [35]: 18.6 ± 3.19 µM |
